# “Also recorded” adds a separate entry of the source. *1 amine or outer side, *2 acyl side, *3 side chain or, on linkers, in order; H or OH if unused. Where a SMILES comes first, the peptide text is derived from it. [ ]: non-standard residue; d: D form. The star is where a group is joined. Exatecan = CC[C@@]1(O)C(=O)OCc2c1cc1n(c2=O)Cc2c-1nc1cc(F)c(C)c3c1c2[C@@H](N*)CC3; Hexanoyl(6-maleimido) = O=C1C=CC(=O)N1CCCCCC(=O)*; NHCH2OCH2CO = O=C(COCN[*:1])[*:2]
# B1: chAB2: mouse-human chimeric anti-Sp17 monoclonal antibody: human VH/VL (SEQ ID NO: 3, 4) in mouse IgG2a heavy chain and mouse kappa light chain (antibody, V domains shown)
# VH: QVQLQQSGAEVKKPGSSVKVSCKASGGTFSSYAISWVRQAPGQGLEWMGRIIPILGIANYAQKFQGRVTITADKSTSTAYMELSSLRSEDTAVYYCARPSEEVVAAYGAFDIWGQGTTVTVSS
# VL: EIVLTQSPLSLPVRPGEPASISCRASQSLLRSDGFNYLDWYLQKPGQSPQLLVYLGSNRASGVPDRFSGSGSGTDFTLKISRVEAEDVGVYYCMQAVQTPYIFGQGTKLEIK
# modifications: mouse IgG2a and kappa constant regions
# Experiments:
# SK-OV-3 cells = assay: Cytotoxicity assay (luminescence) against SK-OV-3 cells; details: 5 or 6 days
# Method: SK-OV-3 cells were seeded at 1000, 2000, or 3000 cells per well and incubated overnight in advance of a cytotoxicity assay. […] The SK-OV-3 cells were treated with various concentrations of the SP17-AB2 antibody, the SP17-AB2-DXD immunoconjugate, a control human IgG4 antibody (hIgG4), or deruxtecan alone (DXD). The cells were incubated for 5 or 6 additional days, and cytotoxicity was then measured using a luminescence assay and EnVision™ plate reader (PerkinElmer, Massachusetts, United States).
# ID8 cells = assay: Cytotoxicity assay against ID8 cells; assay type: cell-based, mouse; details: 3 days
# Method: […] The cells were then treated with various concentrations of either the SP17-AB2 antibody, the SP17-AB2-DXD immunoconjugate, hIgG4, or deruxtecan alone. The cells were incubated for 3 additional days, and then cytotoxicity was measured.
# [1] = target: T1, recombinant 6His-Sp17 protein (Homo sapiens, UniProt Q15506); assay: Surface plasmon resonance (Biacore T200) of chAB2 binding to recombinant 6His-Sp17; details: SPR
# T1 sequence (Q15506 1-151): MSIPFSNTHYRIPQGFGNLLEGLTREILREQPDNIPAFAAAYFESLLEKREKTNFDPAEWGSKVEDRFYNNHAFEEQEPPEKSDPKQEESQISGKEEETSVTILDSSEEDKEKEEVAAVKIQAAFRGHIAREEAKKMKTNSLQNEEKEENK
# Excerpt: The lines correspond, from highest to lowest, to fitted cycles for 300 nanomolar, 100 nanomolar, 50 nanomolar, 25 nanomolar, 12.5 nanomolar, and 6.25 nanomolar concentrations of 6His-Sp17.
# (§1) The nucleotide sequences encoding the VH and VL regions of Example 1 were cloned into a mouse IgG2a heavy chain gene and a mouse kappa light chain gene, respectively, and expressed in CHO—S cells to produce a mouse-human chimeric antibody, which was named chAB2. Successful generation of the antibody was confirmed by SDS-PAGE and western blotting using anti-mouse heavy and light chain antibodies and recombinant Sp17 protein (FIGS. 2 & 3).
# [2] = target: T2, mouse surface Sp17 protein expressed on the mouse ovarian cancer cell line ID8 (Mus musculus, UniProt Q62252); assay: Flow cytometry of ID8 cells labeled with chAB2 and anti-mouse FITC antibody; assay type: cell-based; details: relative to anti-mouse FITC antibody alone
# T2 construct: endogenous in cells; host or cells: ID8 mouse ovarian cancer cell line
# T2 sequence (Q62252 1-149): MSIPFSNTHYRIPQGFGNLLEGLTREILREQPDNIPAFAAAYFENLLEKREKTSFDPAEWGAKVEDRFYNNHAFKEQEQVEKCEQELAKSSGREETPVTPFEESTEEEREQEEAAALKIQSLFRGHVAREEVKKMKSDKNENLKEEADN
# Method: FIG. 4 consists of three panels. The left panel is a graph that depicts flow cytometry results for ID8 cells incubated with an anti-mouse fluorescein isothiocyanate (FITC) antibody, but without a primary antibody. The middle panel is a graph that depicts flow cytometry results for ID8 cells labeled with the anti-Sp17 antibody chAB2 and the anti-mouse FITC antibody.
# as §1
# [3] = test system: normal tissue microarray of 33 normal tissues; assay: Immunohistochemistry on a normal tissue microarray (specificity); details: 2-3 human donors per tissue
# Method: The specificity of the chAB2 antibody for Sp17 was determined with immunohistochemistry on a normal tissue microarray, which consisted of 33 normal tissues obtained from 2-3 human donors per tissue. The normal tissues included brain, eye, adrenal gland, hypophyseal, thyroid, parathyroid, tonsil, thymus, spleen, heart, lung, larynx, esophagus, stomach, small intestine, colon, liver, pancreas, salivary gland, kidney, bone, skeletal, skin, peripheral nerve, mesothelial, breast, ovary, endometrium, cervix, testis, and prostate.
# Sp17 protein = target: T3, Sp17 protein (Homo sapiens, UniProt Q15506); assay: Western blot detection of Sp17 protein; assay type: binding; details: SDS-PAGE of Sp17 protein
# T3 sequence (Q15506 1-151): T1 sequence (Q15506 1-151)
# Excerpt: as §1
# The VH and VL nucleotide sequences of Example 1 were cloned into a human IgG4 heavy chain gene and a human kappa light chain gene, respectively. A Ser228Pro mutation was introduced in the heavy chain to reduce non-specific Fc receptor gamma binding. The resultant antibody was named SP17-AB2. Successful cloning was confirmed by sequence analysis. The amino acid sequences of the heavy chain and light chain are shown in Table 4, and the Ser228Pro mutation is underlined in SEQ ID NO: 11.
# [4] = SK-OV-3 cells at 1000 cells/well
# [5] = SK-OV-3 cells at 2000 cells/well
# [6] = SK-OV-3 cells at 3000 cells/well
Molecule,IC50 (SK-OV-3 cells; [4]),Max Cytotoxicity (SK-OV-3 cells; [4]),IC50 (SK-OV-3 cells; [5]),Max Cytotoxicity (SK-OV-3 cells; [5]),IC50 (SK-OV-3 cells; [6]),Max Cytotoxicity (SK-OV-3 cells; [6]),Max Cytotoxicity (ID8 cells; ID8 cells at 250 cells/well),Max Cytotoxicity (ID8 cells; ID8 cells at 500 cells/well),association rate constant (ka) for chAB2 to Sp17 ([1]; 6.25-300 nanomolar 6His-Sp17),"Kd ([1]; Biacore T200, read-out: dissociation constant (KD))",reactivity to surface Sp17 on ID8 cells by flow cytometry (mean fluorescent intensity) [2],binding to normal human tissues / cross-reactivity by immunohistochemistry [3],binding/detection of Sp17 protein by western blot (Sp17 protein)
CC[C@@]1(O)C(=O)OCc2c1cc1n(c2=O)Cc2c-1nc1cc(F)c(C)c3c1c2[C@@H](NC(=O)COCNC(=O)CNC(=O)[C@H](Cc1ccccc1)NC(=O)CNC(=O)CNC(=O)CCCCCN1C(=O)C=CC1=O)CC3 [deruxtecan] ({Hexanoyl(6-maleimido)}-GGFG[NHCH2OCH2CO]-Exatecan),0.75 nM,98%,1.1 nM,97%,1.2 nM,97%,94%,93%,,,,,
B1,,,,,,,,,"62,600 per mole per second",~2 nM,reactive to mouse surface Sp17 protein; also recorded: increased mean fluorescent intensity,bound to testis and did not bind to normal tissues; also recorded: lack detectable cross-reactivity,Sp17 protein was detected

# Source: US12649790B2, “Proteins that bind SP17 including fully-human anti-SP17 antibodies” (Medicovestor, Inc., priority 2023, dated 2026)
